This passage reports GI50 and TGI results from PubChem BioAssay (NCI).

Among the test systems are BT-549 breast; HOP-62 NSCLC; K-562 leukemia; RXF 393 renal; UO-31 renal; SF-539 CNS; NCI/ADR-RES ovarian; SNB-19 CNS; CCRF-CEM leukemia; HS 578T breast.
What all share (experiment): DTP human tumour cell line panel, 48 h

SMILES strings stand for the structures. “And” between values parts separate entries of the source, which are not always exact repeats. Equal entries are not always repeated.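 Values below derive from 48-hour exposures of cells grown in 96-well plates, with endpoints linearly interpolated between the two concentrations bracketing the appropriate inhibition level. Here, GI50 denotes the concentration required for 50% inhibition of growth. TGI: concentration producing complete growth inhibition.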 Some results are limits rather than exact numbers.

In the case of `CC[C@@]1(O)C(=O)OCc2c1cc1n(c2=O)Cc2c-1nc1cc3c(cc1c2C)OCO3`, the GI50 in the assay with BT-549 breast is 0.0205 µM; in the assay on HOP-62 NSCLC it was less than 0.0001 µM; in the assay with K-562 leukemia it was 0.000488 µM; with RXF 393 renal, 0.000755 µM; in the assay with UO-31 renal, less than 0.0001 µM; in the assay on SF-539 CNS, less than 0.0001 µM. Also, the GI50 with NCI/ADR-RES ovarian was less than 0.0001 µM; in the assay on SNB-19 CNS, 0.000473 µM; in the assay on CCRF-CEM leukemia it was less than 0.0001 µM; in the assay on HS 578T breast it was 37.4 µM. Also, the TGI is 0.314 µM and 0.238 µM with HOP-62 NSCLC; greater than 100 µM with K-562 leukemia; 0.141 µM and 0.0175 µM in the assay with RXF 393 renal; 0.0415 µM in the assay with UO-31 renal; 0.000149 µM in the assay on SF-539 CNS; greater than 100 µM in the assay with NCI/ADR-RES ovarian. Also, the TGI was 0.0131 µM in the assay on SNB-19 CNS and greater than 100 µM in the assay with HS 578T breast.
As for `C/C(=C\COc1c2c(cc3c1CCO3)OC1(C=C2)OC(CC/C(C)=C/COc2c3ccoc3cc3oc(=O)ccc23)C(C)(C)O1)CCC(O)C(C)(C)O` (stereo unspecified), the GI50 was 16.7 µM with BT-549 breast; greater than 100 µM in the assay on HOP-62 NSCLC; 3.82 µM in the assay on K-562 leukemia; 79.8 µM in the assay on RXF 393 renal; 25.7 µM with UO-31 renal; 63.5 µM in the assay with SF-539 CNS. Besides, the GI50 was 23.8 µM with NCI/ADR-RES ovarian, 55.2 µM in the assay with SNB-19 CNS, 8.78 µM with CCRF-CEM leukemia and 27.3 µM in the assay with HS 578T breast. For the same compound, the TGI with BT-549 breast, with HOP-62 NSCLC, in the assay on K-562 leukemia, with RXF 393 renal, in the assay on UO-31 renal and with SF-539 CNS was greater than 100 µM throughout. Further, the TGI in the assay with NCI/ADR-RES ovarian, in the assay with SNB-19 CNS, in the assay on CCRF-CEM leukemia and in the assay on HS 578T breast was greater than 100 µM in each case.
For the compound `O=C(NN=C1CCCCC1)c1[nH]c2ccc(F)cc2c1-c1ccccc1`, the GI50 in the assay on BT-549 breast is 57.4 µM; in the assay on HOP-62 NSCLC it was 35.6 µM; in the assay with K-562 leukemia it was 5.91 µM; with RXF 393 renal, 98.5 µM; with UO-31 renal, 42.6 µM; with SF-539 CNS, 52 µM. Moreover, the GI50 with NCI/ADR-RES ovarian was 23.7 µM; in the assay on SNB-19 CNS, 47.3 µM; with CCRF-CEM leukemia, 17.7 µM; in the assay on HS 578T breast, 48.3 µM. Further, the TGI with BT-549 breast was greater than 100 µM; with HOP-62 NSCLC, greater than 100 µM; in the assay on K-562 leukemia it was 26.6 µM; in the assay with RXF 393 renal, greater than 100 µM; in the assay with UO-31 renal, greater than 100 µM; with SF-539 CNS it was greater than 100 µM. The TGI in the assay on NCI/ADR-RES ovarian is 86.1 µM; in the assay on SNB-19 CNS, greater than 100 µM; in the assay on CCRF-CEM leukemia it was greater than 100 µM; in the assay on HS 578T breast, greater than 100 µM.
For the compound `CCCCCCCCCCCCCCCCOP(=O)(O)OP(=O)(O)OCC1OC(n2ccc(N)nc2=O)C(O)C1O` (stereo unspecified), the TGI in the assay with BT-549 breast, with HOP-62 NSCLC, in the assay with K-562 leukemia, with RXF 393 renal, with UO-31 renal and with SF-539 CNS was greater than 100 µM in each case. The TGI in the assay on NCI/ADR-RES ovarian, in the assay on SNB-19 CNS, in the assay on CCRF-CEM leukemia and with HS 578T breast was greater than 100 µM in each case. Also, the GI50 with K-562 leukemia was > 100 µM and 41.8 µM; in the assay with UO-31 renal, > 100 µM and 21.8 µM; with NCI/ADR-RES ovarian, > 100 µM and 13.7 µM; in the assay on SNB-19 CNS, > 100 µM and 23.8 µM.
As for `COC(=O)/C=C/c1cn(C(C)=O)c2ccc(Br)cc12`, the GI50 with BT-549 breast is 17.2 µM; in the assay with HOP-62 NSCLC, 25 µM; in the assay on K-562 leukemia it was 0.967 µM; in the assay with RXF 393 renal, 26.9 µM; with UO-31 renal, 8.73 µM; with SF-539 CNS, 29.9 µM. Moreover, the GI50 is 29.4 µM with NCI/ADR-RES ovarian, 37.2 µM in the assay on SNB-19 CNS, 1.44 µM with CCRF-CEM leukemia and 22 µM in the assay with HS 578T breast. The TGI in the assay on BT-549 breast was 83.6 µM; with HOP-62 NSCLC, greater than 73.5 µM; in the assay with K-562 leukemia it was greater than 23 µM; with RXF 393 renal it was greater than 100 µM; with UO-31 renal, 48.5 µM; with SF-539 CNS, greater than 100 µM. In addition, the TGI in the assay on NCI/ADR-RES ovarian is greater than 100 µM; in the assay on SNB-19 CNS, greater than 100 µM; with CCRF-CEM leukemia, greater than 100 µM; in the assay with HS 578T breast, 76.2 µM.
With `CC(=O)Oc1cc2c(OC(C)=O)c(-c3c(C)cc4c(C(C)C)c(OC(C)=O)c(OC(C)=O)cc4c3OC(C)=O)c(C)cc2c(C(C)C)c1OC(C)=O`, the GI50 was 4.07 µM and 5.16 µM and 9.94 µM with BT-549 breast; 6.67 µM and 5.17 µM and 8.71 µM with HOP-62 NSCLC; 21.3 µM and 6.13 µM and 9.67 µM in the assay with K-562 leukemia; 14 µM and 16.3 µM and 4.05 µM in the assay with RXF 393 renal; 5.73 µM and 5.67 µM and 11.8 µM in the assay on UO-31 renal; 6.52 µM and 5.37 µM and 12.5 µM in the assay with SF-539 CNS. The GI50 is 7.87 µM and 8.95 µM and 20 µM with NCI/ADR-RES ovarian; 15.3 µM and 8.77 µM and 19.6 µM in the assay on SNB-19 CNS; 0.707 µM and 5.41 µM and 5.98 µM in the assay on CCRF-CEM leukemia; 18.7 µM and 20.1 µM and 8.85 µM in the assay on HS 578T breast. Besides, the TGI in the assay with BT-549 breast is 9.05 µM and 10.2 µM and 26.6 µM; in the assay on HOP-62 NSCLC it was 18.8 µM and 11.7 µM and 24.1 µM; in the assay on K-562 leukemia it was 63.1 µM and > 21.4 µM and 25.8 µM; in the assay on RXF 393 renal, 30.6 µM and 34.5 µM and 14.9 µM; with UO-31 renal, 13.3 µM and 11.9 µM and 33.8 µM; with SF-539 CNS, 12.5 µM and 10.5 µM and 31.3 µM. Further, the TGI with NCI/ADR-RES ovarian is 33.1 µM and 32.7 µM and > 55.3 µM; with SNB-19 CNS, > 31.7 µM and 25.2 µM and 47.5 µM; in the assay with CCRF-CEM leukemia, 4.04 µM and 15.6 µM and 20.7 µM; in the assay on HS 578T breast, 49.8 µM and 55.2 µM and 21.6 µM.
As for `COc1cc(O)c2c(c1)C(=O)c1cc3c(c(O)c1C2=O)C(OC1OC(C)C(O)C(O)C1OC)C(OC)C(C)(O)C3=O` (stereo unspecified), the GI50 in the assay on BT-549 breast is 2.07 µM; in the assay on HOP-62 NSCLC it was 2.92 µM; in the assay on K-562 leukemia, 2.24 µM and 12.2 µM; with RXF 393 renal, 1.01 µM; in the assay with UO-31 renal it was 1.87 µM; in the assay with NCI/ADR-RES ovarian, 2.86 µM. The GI50 was 2.42 µM with SNB-19 CNS; 3.07 µM and 13.4 µM in the assay on CCRF-CEM leukemia; 3.34 µM in the assay on HS 578T breast. Also, the TGI in the assay with BT-549 breast is 5.18 µM; with HOP-62 NSCLC, 26.1 µM and 9.56 µM; in the assay with K-562 leukemia, > 100 µM and 72.5 µM; in the assay with RXF 393 renal, 6.72 µM and 4.38 µM; in the assay with UO-31 renal it was 12.2 µM and 7.13 µM; with SF-539 CNS, 4.52 µM and 5.99 µM. In addition, the TGI in the assay with NCI/ADR-RES ovarian was 15.8 µM and 11 µM; with SNB-19 CNS, 8.9 µM and 15.5 µM; in the assay with CCRF-CEM leukemia, > 100 µM and 74.1 µM; in the assay with HS 578T breast it was 19.5 µM.
